In article PMC12670405, “Second-Generation AURKA-Targeting PROTACs: Structural Optimization toward in Vivo Degradation in Neuroblastoma” (Journal of Medicinal Chemistry, 2025):

Legend:
caspase 3/7 in NGP = assay: Caspase-Glo 3/7 assay; assay type: cell-based, human; settings: 48 h, 1 μM tariquidar
Method: (§1) Neuroblastoma cells were seeded in 384-well plates at different densities ranging from 1200 to 5000 cells/well and allowed to adhere overnight. Compound treatment was performed using the D300e Digital Dispenser (Tecan) in duplicate. At the 48 h time point, a Caspase-Glo 3/7 Assay (Promega, #G8090) was performed following the manufacturer’s protocol, but adapted to add a 1:2 ratio of Caspase-Glo 3/7 reagent volume to sample volume. The readout was performed using the GloMax Discover Microplate Reader (Promega). Caspase 3/7 luminescence values were normalized to that of the DMSO negative control, and mean relative caspase 3/7 luminescence values were calculated from 3 individual experiments.

[1] = tested on: caspase 3/7 in SK-N-BE(2)-C; assay: Caspase-Glo 3/7 assay; assay type: cell-based, human; settings: 48 h, 1 μM tariquidar
Method: as §1

AURKA = biological target: T1, AURKA (Homo sapiens, UniProt O14965); assay: In vivo pharmacodynamics study, IMR-32 cell line-derived xenograft, Western blot; set-up: from tissue; host or cells: IMR-32 cell line-derived xenograft tumours, BALB/c nude mice; species or system BALB/c nude mice; settings: for AURKA protein reduction in tumor (in words): single IP dose 15 mg/kg; for AURKA protein levels in tumor (in words): single IV dose 15 mg/kg
T1 sequence (O14965 1-403): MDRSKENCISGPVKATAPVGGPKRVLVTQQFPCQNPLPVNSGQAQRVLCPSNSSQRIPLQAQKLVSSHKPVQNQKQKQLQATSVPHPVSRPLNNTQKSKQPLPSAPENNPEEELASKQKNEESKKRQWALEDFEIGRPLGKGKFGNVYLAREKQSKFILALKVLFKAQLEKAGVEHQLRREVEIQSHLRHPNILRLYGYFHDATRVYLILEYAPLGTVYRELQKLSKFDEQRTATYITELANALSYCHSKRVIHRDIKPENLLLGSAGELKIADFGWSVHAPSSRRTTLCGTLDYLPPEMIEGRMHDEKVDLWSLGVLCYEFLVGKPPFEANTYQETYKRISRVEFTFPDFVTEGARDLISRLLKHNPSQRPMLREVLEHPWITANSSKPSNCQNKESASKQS
Method: Protein lysates were denatured through addition of Laemmli buffer supplemented with β-mercaptoethanol (Sigma-Aldrich, #M6250) heated at 95 °C for 10 min. […] The ladder used was the PageRuler Prestained Protein Ladder (Thermo Fisher Scientific, #26617). Afterward, proteins were blotted on nitrocellulose membranes (Bio-Rad, #162-0233) by running at 100 V for 1 h with a buffer containing 10% 10× Tris/glycine (Bio-Rad, #161-0771) and 20% methanol (Thermo Fisher Scientific, #0390D). Ponceau staining was used for confirmation of protein transfer. Membranes were blocked in 5% milk/TBST or 5% BSA/TBST for 1 h at room temperature and subsequently incubated with primary antibodies overnight at 4 °C. Blots were washed 3× for 5 min each with TBST prior to incubation with secondary antibodies for 1 h at room temperature. Visualization of the blots was done using WestDura or WestFemto (Thermo Fisher Scientific, #34096, #34076) with the Amersham Imager 680 (BIOKÉ). Blots were stripped using the Restore Stripping Buffer (Thermo Fisher Scientific, #21059) prior to detection of additional proteins. Images were compiled and quantified using Sciugo (https://sciugo.com/). Per lane, quantified data were always normalized to that of the loading control (Vinculin or GAPDH), prior to calculating fold changes. Mean fold changes are calculated from 3 individual experiments. A list of the primary and secondary antibodies used can be found in the Supporting Information (Supplementary Table S7).
Both the in vivo pharmacokinetics and in vivo pharmacodynamics studies were performed by Eurofins Pharmacology Discovery Services. All mice were provided by BioLasco Taiwan (under Charles River Laboratories Licensee). Animals were acclimated for 3 days prior to use and were confirmed to be in good health. All aspects of this work including housing, experimentation, and animal disposal were performed in general accordance with the “Guide for the Care and Use of Laboratory Animals: Eighth Edition” (National Academies Press, Washington, DC. 2011) in a AAALAC-accredited laboratory animal facility. In addition, the animal care and use protocol was reviewed and approved by the IACUC at Eurofins Pharmacology Discovery Services; IN020-08202020 and ON002-07142023.
Six-week old female BALB/c nude mice were subcutaneously implanted with viable IMR-32 cells formulated in 50% Matrigel into the right flank (1 × 10^7 cells/mouse, in 0.2 mL volume). Palpable tumor volumes were measured with a caliper and calculated according to the prolate ellipsoid formula: tumor volume = length × width^2 × 0.5. When the mean tumor volume reached ∼250 mm^3, animals were randomized into groups (0, 4, 8, 24 h) with 3 animals per group. […] Other groups were given a single IV or IP administration of SK5527 or SK4454 at 15 mg/kg (dissolved in 5% DMSO/5% Solutol HS15/90% PBS). Tumors were subsequently harvested at the respective time points, snap-frozen in liquid nitrogen, and kept frozen at −70 °C until further processing. Upon receipt of the samples in our lab, we mechanically digested and lysed tumor pieces by adding cold RIPA lysis buffer (with protease and phosphatase inhibitors as previously described) and Stainless Steel Beads (Qiagen, #69989) followed by shaking for 2 min (twice) using TissueLyser II (Qiagen). Afterward, samples were centrifuged for 20 min (10,000 rpm, 4 °C). The supernatant was then collected and the concentration of the obtained protein lysates was measured using the Pierce BCA Protein Assay Kit (Thermo Fisher Scientific, #23227). Western blot was performed as previously described to visualize changes in AURKA protein levels.

| SMILES | induction of apoptosis (caspase 3/7) upon cotreatment with tariquidar (in words) (caspase 3/7 in NGP) | induction of apoptosis (caspase 3/7) upon cotreatment with tariquidar (in words) [1] | AURKA protein reduction in tumor (in words) (AURKA) | AURKA protein levels in tumor (in words) (AURKA; 4 and 8 h post-treatment) | AURKA protein levels in tumor (in words) (AURKA; 24 h) |
| --- | --- | --- | --- | --- | --- |
| Cc1cc(Nc2ccc(F)c(CC3(C(=O)N4CCC(CN5CCN(c6ccc(N7CCC(=O)NC7=O)cn6)CC5)CC4)CCN(Cc4cccc(Cl)c4F)CC3)n2)n[nH]1 [SK4454] | no difference | significant increased induction of apoptosis | not observed | strongly reduced AURKA protein levels | return to baseline levels |
| Cc1cc(Nc2ccc(F)c(CC3(C(=O)N4CCC(F)(CN5CCN(c6ccc(N7CCC(=O)NC7=O)cn6)CC5)CC4)CCN(Cc4cccc(Cl)c4F)CC3)n2)n[nH]1 [SK5527] | no difference | significant increased induction of apoptosis | not observed | strongly reduced AURKA protein levels | return to baseline levels |
